# Values quoted from earlier work in patent US6623775B2, “Treating or preventing illness growth of Clostridium difficile” (S.S. Steiner, Inc., priority 1997, dated 2003).
# Details: degree of ionization taken into account
structure (smiles),measurement,value
CC(C)=CCC(=O)[C@@]1(O)C(O)=C(C(=O)CC(C)C)C(=O)[C@H]1CC=C(C)C (relative stereo) [trans-isohumulone],Antibacterial activity relative to colupulone,11 times
same,Antibacterial activity relative to humulone,about 20 times
same,Antibacterial activity relative to trans-humulinic acid,nine
